According to patent US8952024B2, “Herbicidal pyrimidone derivatives” (E I du Pont de Nemours and Company, priority 2009, dated 2015):

What was measured:
Type in all cases: in vivo
[1] = system: barnyardgrass (Echinochloa crus-galli); experiment: Test A pre-/postemergence plant response
From the text: (§1) Seeds of barnyardgrass (Echinochloa crus-galli), large crabgrass (Digitaria sanguinalis), giant foxtail (Setaria faberii), morningglory (Ipomoea spp.), pigweed (Amaranthus retroflexus), velvetleaf (Abutilon theophrasti), wheat (Triticum aestivum) and corn (Zea mays) were planted into a blend of loam soil and sand and treated preemergence with a directed soil spray using test chemicals formulated in a non-phytotoxic solvent mixture which included a surfactant. At the same time these species were also treated with postemergence applications of test compounds formulated in the same manner.
(§2) Plants ranged in height from two to ten cm and were in the one- to two-leaf stage for the postemergence treatment. Treated plants and untreated controls were maintained in a greenhouse for approximately ten days, after which time all treated plants were compared to untreated controls and visually evaluated for injury. Plant response ratings, summarized in Table A, are based on a 0 to 100 scale where 0 is no effect and 100 is complete control. A dash (-) response means no test result.

corn (Zea mays) = experiment: Test A pre-/postemergence plant response
From the text: as §1, §2

[2] = system: giant foxtail (Setaria faberii); experiment: Test A pre-/postemergence plant response
From the text: as §1, §2

[3] = system: large crabgrass (Digitaria sanguinalis); experiment: Test A pre-/postemergence plant response
From the text: as §1, §2

[4] = system: morningglory (Ipomoea spp.); experiment: Test A pre-/postemergence plant response
From the text: as §1, §2

[5] = system: pigweed (Amaranthus retroflexus); experiment: Test A pre-/postemergence plant response
From the text: as §1, §2

[6] = system: velvetleaf (Abutilon theophrasti); experiment: Test A pre-/postemergence plant response
From the text: as §1, §2

[7] = system: wheat (Triticum aestivum); experiment: Test A pre-/postemergence plant response
From the text: as §1, §2

[8] = system: barnyardgrass (Echinochloa crus-galli); experiment: Test B flooded paddy test; conditions: for Plant response rating, Flood, Barnyardgrass: 250 g ai/ha, flooded paddy test, visual rating on 0 to 100 scale (0 no effect, 100 complete control) after 13 to 15 days; for Plant response rating, Barnyardgrass: Flood (flooded paddy test), 13 to 15 days
From the text: (§3) Plant species in the flooded paddy test consisted of rice (Oryza sativa), umbrella sedge (Cyperus difformis), ducksalad (Heteranthera limosa) and barnyardgrass (Echinochloa crus-galli) grown to the 2-leaf stage for testing. At the time of treatment, test pots were flooded with water to 3 cm above the soil surface, treated by application of test compounds directly to the paddy water, and then maintained at that water depth for the duration of the test.
(§4) Treated plants and controls were maintained in a greenhouse for 13 to 15 days, after which time all treated plants were visually evaluated and compared to controls. Plant response ratings, summarized in Table B, are based on a scale of 0 to 100 where 0 is no effect and 100 is complete control. A dash (-) response means no test result.

[9] = system: ducksalad (Heteranthera limosa); experiment: Test B flooded paddy test; conditions: for Plant response rating, Flood, Ducksalad: 250 g ai/ha, flooded paddy test, visual rating on 0 to 100 scale (0 no effect, 100 complete control) after 13 to 15 days; for Plant response rating, Ducksalad: Flood (flooded paddy test), 13 to 15 days
From the text: as §3, §4

rice (Oryza sativa) = experiment: Test B flooded paddy test; conditions: for Plant response rating, Flood, Rice: 250 g ai/ha, flooded paddy test, visual rating on 0 to 100 scale (0 no effect, 100 complete control) after 13 to 15 days; for Plant response rating, Rice: Flood (flooded paddy test), 13 to 15 days
From the text: as §3, §4

[10] = system: umbrella sedge (Cyperus difformis); experiment: Test B flooded paddy test; conditions: for Plant response rating, Flood, Sedge, Umbrella: 250 g ai/ha, flooded paddy test, visual rating on 0 to 100 scale (0 no effect, 100 complete control) after 13 to 15 days; for Plant response rating, Sedge, Umbrella: Flood (flooded paddy test), 13 to 15 days
From the text: as §3, §4

[11] = Postemergence, 125 g ai/ha, visual injury, 0 to 100 scale (0 no effect, 100 complete control), approx. ten days
[12] = Postemergence, 500 g ai/ha, 0 to 100 scale, 0 = no effect, 100 = complete control, approx. ten days
[13] = Preemergence, 125 g ai/ha, 0 to 100 scale, 0 = no effect, 100 = complete control
[14] = Preemergence, 500 g ai/ha, visual injury, 0 to 100 scale (0 no effect, 100 complete control), approx. ten days
[15] = 31 g ai/ha, scale of 0 to 100 where 0 is no effect and 100 is complete control
[16] = 62 g ai/ha, scale 0 to 100, 0 is no effect, 100 is complete control
[17] = 125 g ai/ha, scale 0 to 100, 0 is no effect, 100 is complete control
[18] = Postemergence, 125 g ai/ha, 0 to 100 scale where 0 is no effect and 100 is complete control
[19] = Postemergence, 500 g ai/ha, visual injury, 0 to 100 scale (0 no effect, 100 complete control), approx. ten days
[20] = Preemergence, 125 g ai/ha, 0 to 100 scale where 0 is no effect and 100 is complete control, approximately ten days
[21] = Preemergence, 500 g ai/ha, 0 to 100 scale, 0 = no effect, 100 = complete control

SMILES: O=C1CCCC([O-])=C1C(=O)c1cnc(-c2ccccc2)n(-c2ccc(Cl)cc2)c1=O.[K+] [Compound 13]
- Barnyardgrass plant response rating [1, 11]: 30
- Plant response rating, Barnyardgrass [1, 12]: 90
- Plant response rating, Barnyardgrass [1, 13]: 10
- Plant response rating, Barnyardgrass [1, 14]: 90
- Corn plant response rating (corn (Zea mays); [11]): 0
- Plant response rating, Corn (corn (Zea mays); [12]): 50
- Plant response rating, Corn (corn (Zea mays); [13]): 0
- Plant response rating, Corn (corn (Zea mays); [14]): 20
- Foxtail, Giant plant response rating [2, 11]: 30
- Plant response rating, Foxtail, Giant [2, 12]: 80
- Plant response rating, Foxtail, Giant [2, 13]: 50
- Plant response rating, Foxtail, Giant [2, 14]: 90
- Crabgrass, Large plant response rating [3, 11]: 30
- Plant response rating, Crabgrass, Large [3, 12]: 90
- Plant response rating, Crabgrass, Large [3, 13]: 60
- Plant response rating, Crabgrass, Large [3, 14]: 100
- Morningglory plant response rating [4, 11]: 0
- Plant response rating, Morningglory [4, 12]: 50
- Plant response rating, Morningglory [4, 13]: 0
- Plant response rating, Morningglory [4, 14]: 0
- Pigweed plant response rating [5, 11]: 80
- Plant response rating, Pigweed [5, 12]: 100
- Plant response rating, Pigweed [5, 13]: 40
- Plant response rating, Pigweed [5, 14]: 100
- Velvetleaf plant response rating [6, 11]: 100
- Plant response rating, Velvetleaf [6, 12]: 100
- Plant response rating, Velvetleaf [6, 13]: 80
- Plant response rating, Velvetleaf [6, 14]: 100
- Wheat plant response rating [7, 11]: 10
- Plant response rating, Wheat [7, 12]: 60
- Plant response rating, Wheat [7, 13]: 0
- Plant response rating, Wheat [7, 14]: 40
- Plant response rating, Flood, Barnyardgrass [8]: 35
- Plant response rating, Barnyardgrass [8, 15]: 0
- Plant response rating, Barnyardgrass [8, 16]: 0
- Plant response rating, Barnyardgrass [8, 17]: 0
- Plant response rating, Flood, Ducksalad [9]: 95
- Plant response rating, Ducksalad [9, 15]: 0
- Plant response rating, Ducksalad [9, 16]: 0
- Plant response rating, Ducksalad [9, 17]: 0
- Plant response rating, Flood, Rice (rice (Oryza sativa)): 25
- Plant response rating, Rice (rice (Oryza sativa); [15]): 0
- Plant response rating, Rice (rice (Oryza sativa); [16]): 0
- Plant response rating, Rice (rice (Oryza sativa); [17]): 0
- Plant response rating, Flood, Sedge, Umbrella [10]: 85
- Plant response rating, Sedge, Umbrella [10, 15]: 0
- Plant response rating, Sedge, Umbrella [10, 16]: 0
- Plant response rating, Sedge, Umbrella [10, 17]: 60

SMILES: COc1ccccc1-n1c(-c2ccccc2)ncc(C(=O)C2=C(O)CCCC2=O)c1=O [Compound 15]
- Barnyardgrass plant response rating [1, 11]: 10
- Plant response rating, Barnyardgrass [1, 12]: 40
- Plant response rating, Barnyardgrass [1, 13]: 10
- Plant response rating, Barnyardgrass [1, 14]: 90
- Corn plant response rating (corn (Zea mays); [11]): 0
- Plant response rating, Corn (corn (Zea mays); [12]): 10
- Plant response rating, Corn (corn (Zea mays); [13]): 0
- Plant response rating, Corn (corn (Zea mays); [14]): 0
- Foxtail, Giant plant response rating [2, 11]: 10
- Plant response rating, Foxtail, Giant [2, 12]: 70
- Plant response rating, Foxtail, Giant [2, 13]: 40
- Plant response rating, Foxtail, Giant [2, 14]: 70
- Crabgrass, Large plant response rating [3, 11]: 20
- Plant response rating, Crabgrass, Large [3, 12]: 70
- Plant response rating, Crabgrass, Large [3, 13]: 40
- Plant response rating, Crabgrass, Large [3, 14]: 90
- Morningglory plant response rating [4, 11]: 10
- Plant response rating, Morningglory [4, 12]: 50
- Plant response rating, Morningglory [4, 13]: 0
- Plant response rating, Morningglory [4, 14]: 60
- Pigweed plant response rating [5, 11]: 60
- Plant response rating, Pigweed [5, 12]: 90
- Plant response rating, Pigweed [5, 13]: 30
- Plant response rating, Pigweed [5, 14]: 90
- Velvetleaf plant response rating [6, 11]: 100
- Plant response rating, Velvetleaf [6, 12]: 100
- Plant response rating, Velvetleaf [6, 13]: 40
- Plant response rating, Velvetleaf [6, 14]: 90
- Wheat plant response rating [7, 11]: 0
- Plant response rating, Wheat [7, 12]: 20
- Plant response rating, Wheat [7, 13]: 0
- Plant response rating, Wheat [7, 14]: 20
- Plant response rating, Flood, Barnyardgrass [8]: 35
- Plant response rating, Barnyardgrass [8, 16]: 20
- Plant response rating, Flood, Ducksalad [9]: 60
- Plant response rating, Ducksalad [9, 16]: 0
- Plant response rating, Flood, Rice (rice (Oryza sativa)): 0
- Plant response rating, Rice (rice (Oryza sativa); [16]): 0
- Plant response rating, Flood, Sedge, Umbrella [10]: 30
- Plant response rating, Sedge, Umbrella [10, 16]: 0

SMILES: Cc1cccc(-n2c(-c3ccccc3)ncc(C(=O)C3=C(O)CCCC3=O)c2=O)c1 [Compound 18]
- Barnyardgrass plant response rating [1, 11]: 20
- Plant response rating, Barnyardgrass [1, 12]: 90
- Plant response rating, Barnyardgrass [1, 13]: 10
- Plant response rating, Barnyardgrass [1, 14]: 100
- Corn plant response rating (corn (Zea mays); [11]): 0
- Plant response rating, Corn (corn (Zea mays); [12]): 20
- Plant response rating, Corn (corn (Zea mays); [13]): 0
- Plant response rating, Corn (corn (Zea mays); [14]): 20
- Foxtail, Giant plant response rating [2, 11]: 40
- Plant response rating, Foxtail, Giant [2, 12]: 90
- Plant response rating, Foxtail, Giant [2, 13]: 40
- Plant response rating, Foxtail, Giant [2, 14]: 90
- Crabgrass, Large plant response rating [3, 11]: 30
- Plant response rating, Crabgrass, Large [3, 12]: 80
- Plant response rating, Crabgrass, Large [3, 13]: 60
- Plant response rating, Crabgrass, Large [3, 14]: 100
- Morningglory plant response rating [4, 11]: 40
- Plant response rating, Morningglory [4, 12]: 100
- Plant response rating, Morningglory [4, 13]: 20
- Plant response rating, Morningglory [4, 14]: 70
- Pigweed plant response rating [5, 11]: 100
- Plant response rating, Pigweed [5, 12]: 100
- Plant response rating, Pigweed [5, 13]: 70
- Plant response rating, Pigweed [5, 14]: 100
- Velvetleaf plant response rating [6, 11]: 100
- Plant response rating, Velvetleaf [6, 12]: 100
- Plant response rating, Velvetleaf [6, 13]: 30
- Plant response rating, Velvetleaf [6, 14]: 100
- Wheat plant response rating [7, 11]: 0
- Plant response rating, Wheat [7, 12]: 50
- Plant response rating, Wheat [7, 13]: 0
- Plant response rating, Wheat [7, 14]: 40
- Plant response rating, Flood, Barnyardgrass [8]: 50
- Plant response rating, Barnyardgrass [8, 15]: 10
- Plant response rating, Barnyardgrass [8, 16]: 20
- Plant response rating, Barnyardgrass [8, 17]: 20
- Plant response rating, Flood, Ducksalad [9]: 90
- Plant response rating, Ducksalad [9, 15]: 20
- Plant response rating, Ducksalad [9, 16]: 50
- Plant response rating, Ducksalad [9, 17]: 65
- Plant response rating, Flood, Rice (rice (Oryza sativa)): 25
- Plant response rating, Rice (rice (Oryza sativa); [15]): 10
- Plant response rating, Rice (rice (Oryza sativa); [16]): 15
- Plant response rating, Rice (rice (Oryza sativa); [17]): 25
- Plant response rating, Flood, Sedge, Umbrella [10]: 85
- Plant response rating, Sedge, Umbrella [10, 15]: 0
- Plant response rating, Sedge, Umbrella [10, 16]: 30
- Plant response rating, Sedge, Umbrella [10, 17]: 50

SMILES: O=C(C1=C(O)C2CCC(C2)C1=O)c1cnc(-c2ccccc2)n(C2CCCCCCCCCCC2)c1=O (stereo not drawn) [Compound 247]
- Plant response rating, Barnyardgrass [1, 18]: 30
- Barnyardgrass plant response rating [1, 19]: 80
- Plant response rating, Barnyardgrass [1, 20]: 0
- Plant response rating, Barnyardgrass [1, 21]: 0
- Plant response rating, Corn (corn (Zea mays); [18]): 0
- Corn plant response rating (corn (Zea mays); [19]): 30
- Plant response rating, Corn (corn (Zea mays); [20]): 0
- Plant response rating, Corn (corn (Zea mays); [21]): 0
- Plant response rating, Foxtail, Giant [2, 11]: 0
- Foxtail, Giant plant response rating [2, 19]: 30
- Plant response rating, Foxtail, Giant [2, 20]: 0
- Plant response rating, Foxtail, Giant [2, 21]: 0
- Plant response rating, Crabgrass, Large [3, 18]: 40
- Crabgrass, Large plant response rating [3, 19]: 70
- Plant response rating, Crabgrass, Large [3, 20]: 0
- Plant response rating, Crabgrass, Large [3, 21]: 0
- Plant response rating, Morningglory [4, 11]: 100
- Morningglory plant response rating [4, 19]: 100
- Plant response rating, Morningglory [4, 20]: 0
- Plant response rating, Morningglory [4, 21]: 0
- Plant response rating, Pigweed [5, 11]: 70
- Pigweed plant response rating [5, 19]: 90
- Plant response rating, Pigweed [5, 20]: 0
- Plant response rating, Pigweed [5, 21]: 0
- Plant response rating, Velvetleaf [6, 11]: 100
- Velvetleaf plant response rating [6, 19]: 100
- Plant response rating, Velvetleaf [6, 20]: 0
- Plant response rating, Velvetleaf [6, 21]: 0
- Plant response rating, Wheat [7, 11]: 0
- Wheat plant response rating [7, 19]: 0
- Plant response rating, Wheat [7, 20]: 0
- Plant response rating, Wheat [7, 21]: 0
